Laboratory results reported in US20240358711A1, “COMPOUNDS FOR NEUTROPHIL ROS INHIBITION” (IMMUNYX PHARMA LTD., priority 2021, published 2024).
Structures can show the parent of a compound that is named as a salt. Where two headings read alike, the source gives them in different places.

Key:
mouse neutrophils = experiment: ROS inhibition in mouse neutrophils; type: cell-based; details: average of several experiments; for <90% ROS Inhibition: concentration
Source text: (§1) PMA was again used to stimulate ROS production in neutrophils and the effects of the drugs were monitored at increasing concentration levels.

human neutrophils [1] = experiment: ROS production by PMA-stimulated purified human neutrophils; type: cell-based; details: for ROS production in the presence of PMA: 10 uM concentration; for ROS production in the presence of PMA / IC50 / <90% ROS Inhibition: human neutrophils; for IC50 / <90% ROS Inhibition: PMA stimulated, average of several experiments; for IC50: read-out: ROS Inhibition IC50; for ROS inhibitor effectiveness over 100 nm to 10 uM: PMA stimulated human neutrophils; for <90% ROS Inhibition: concentration
Description: Following blood withdrawal, blood was overlaid on 3% dextran in 0.9% NaCl in a 1:1 ratio and left at RT for 25 min to allow erythrocyte sedimentation. Residual RBCs were lysed by adding water for 30 sec and stopped by adding 2.5% BSA/5×PBS. WBCs were then diluted in 0.5% BSA/1×PBS and total number of cells was counted. Purification of pure neutrophils (HDNs) was done by overlaying blood after RBC sedimentation in a 1:1 ratio on Histopaque-1077. After 30 min centrifugation at 400 g, pure neutrophils were found at the bottom of the tube (pellet). Mononuclear cells (LDF—low density fraction) settle between the Histopaque-1077 and the 0.9% saline.
(§2) A high-throughput screen was performed to find molecules that inhibit ROS production by neutrophils. Extracted human neutrophils were purified and kept in culture. The cells were then exposed to various drugs and ROS production was monitored over time. Compounds that also scavenged hydrogen peroxide (H2O2) and/or lowered neutrophil ATP levels (reflecting toxicity) were removed. The top hits from the screen were selected for further analysis.
Neutrophils not exposed to PMA were used as a negative control and neutrophils exposed to only PMA were used as a positive control.
as §1

human neutrophils [2] = experiment: High-throughput screen for molecules that inhibit ROS production by neutrophils (PMA and fMLP stimulation); type: cell-based
Description: as §2, with “analysis. 160 basal hits were tested for their ability to inhibit neutrophil ROS production. 64 molecules were able to inhibit ROS production in the presence of PMA activation. 67 molecules were able to inhibit ROS production in the presence of N-Formylmethionine-leucyl-phenylalanine (fMLP). Of those 47 molecules were able to inhibit ROS production by both stimulation methods.” for “analysis.”

[3] = tested on: whole blood samples from healthy human subjects; experiment: ROS levels in whole blood samples from healthy human subjects, without or with PMA; type: cell-based; details: for reduction in ROS in whole blood treated with PMA: higher dose (5 uM)
Description: A high and low concentration were tested for each compound. […] Next, the compounds were tested on whole blood treated with PMA.

[4] = tested on: neutrophils isolated from blood; experiment: Neutrophil survival by FACS (Annexin V and PI double positive = dead); type: cell-based; details: 2 hours culture, drugs at 1 uM
Description: To test this hypothesis, neutrophils isolated from blood were cultured with the various drugs (concentration 1 uM) for 2 hours and then neutrophil survival was monitored by FACS. Cells that were double positive for Anexin V staining and PI staining were considered dead.

[5] = Circulating ALT levels in mice after drug administration; type: in vivo, mouse; details: 48 hours after drug administration
Description: One of the benefits of targeting of these drugs directly to neutrophils is to decrease their unwanted side effects. As mentioned early, many of these compounds have known side effects with respect to neutrophil differentiation in the bone marrow. Targeting to mature neutrophils decreases this unwanted side effect. To test if side effects are indeed decreased liver enzyme levels were measured in the mice after administration of free Stelazine and neutrophil targeted Stelazine. […] It is thus clear that neutrophil targeting is particularly beneficial for the selected compounds.

LPS treated mice = experiment: ROS in the lungs of LPS treated mice (lung inflammation model); type: in vivo, mouse
Description: (5B) Bar graph of relative ROS levels in the lungs of LPS treated mice, LPS treated mice administered free Stelazine, Stelazine loaded naked liposomes and Stelazine loaded targeting-peptide decorated liposomes. (5C) Images of ROS levels in LPS treated lungs administered various compositions of Stelazine and/or naked or peptide-decorated liposomes (referred to as “TENN”). 4 hours following treatment with the described molecules, animals were injected with luminol and ROS in the lungs was quantified using IVIS.
Mice were given 150 ug LPS by inhalation and left for 2 days. […] The LPS was inhaled on Day 0, and then the dosing of the drugs was performed in the evening of day 1 and the morning of day 2. Three different formulations of Stelazine were tested by IV administration: free Stelazine administered in PBS, Stelazine loaded into liposomes in PBS, and Stelazine loaded into liposomes decorated with neutrophil targeting peptides in PBS.

Row | SMILES | IC50 (mouse neutrophils; Neutrophil) | <90% ROS Inhibition (mouse neutrophils) | ROS production in the presence of PMA (human neutrophils [1]) | IC50 (human neutrophils [1]; Neutrophil) | <90% ROS Inhibition (human neutrophils [1]) | further results
1 | CCN1CCN(Cc2ccc(Nc3ncc(F)c(-c4cc(F)c5nc(C)n(C(C)C)c5c4)n3)nc2)CC1 [Abemaciclib] | 1.5 µM | 5 µM | more effective | 1 µM | 2 µM | ROS inhibitor effectiveness over 100 nm to 10 uM (human neutrophils [1]): most effective ROS inhibitors
2 | CN(C)C/C=C/C(=O)Nc1cc2c(Nc3ccc(F)c(Cl)c3)ncnc2cc1O[C@H]1CCOC1 [Afatanib Maleate, Afatinib Maleate] | 2.5 µM | 8 µM | – | – | – | –
3 | CN(C)C/C=C/C(=O)Nc1cc2c(Nc3ccc(F)c(Cl)c3)ncnc2cc1O[C@H]1CCOC1 [Afatinib] | – | – | more modest reduction | 4 µM | 9 µM | –
4 | CN(C)CCC=C1c2ccccc2CCc2ccccc21 [Amitriptyline] | – | – | – | – | – | ROS inhibition in the screen (human neutrophils [2]): inhibited ROS production
5 | COc1cc(Nc2c(C#N)cnc3cc(OCCCN4CCN(C)CC4)c(OC)cc23)c(Cl)cc1Cl [Bosutinib] | 0.15 µM | 1.5 µM | more effective | 0.2 µM | 0.75 µM | ROS inhibitor effectiveness over 100 nm to 10 uM (human neutrophils [1]): most effective ROS inhibitors; ROS inhibition in whole blood treated with PMA ([3]; 1 uM): this inhibition was quickly lost; ROS inhibition in whole blood treated with PMA ([3]; 5 uM): highly effective at ROS inhibition
6 | CN(C)CCCN1c2ccccc2CCc2ccc(Cl)cc21 [Clomipramine] | – | 7 µM | more effective | – | 5 µM | ROS inhibitor effectiveness over 100 nm to 10 uM (human neutrophils [1]): most effective ROS inhibitors; ROS inhibition in whole blood treated with PMA ([3]; 5 uM): less strong effect; reduction in ROS in whole blood treated with PMA [3]: > 50%
7 | CCCCOc1ccc(C(=O)CCN2CCCCC2)cc1 [Dyclonine] | 2 µM | 5 µM | – | 2.5 µM | 7 µM | ROS levels relative to unstimulated neutrophils (human neutrophils [1]; 10 μM): 44 % of negative control cells
8 | CC(C)(C)C(=O)/C(=C\c1cccc([N+](=O)[O-])c1)n1cncn1 [Nexinhib] | – | – | – | – | 5 µM | IC50 (mouse neutrophils): 8 µM; IC50 (human neutrophils [1]): 1.5 µM; ROS inhibition in whole blood treated with PMA ([3]; 5 uM): less strong effect; reduction in ROS in whole blood treated with PMA [3]: > 50%
9 | COC(=O)C1=C(C)NC(C)=C(C(=O)OCC(C)C)C1c1ccccc1[N+](=O)[O-] (centres unmarked) [Nisoldipine] | – | – | more modest reduction | – | – | –
10 | CCCCCCCCCCCCCC(=O)O[C@@H]1[C@@H](C)[C@@]2(O)[C@@H](C=C(CO)C[C@]3(O)C(=O)C(C)=C[C@@H]23)[C@@H]2C(C)(C)[C@]12OC(C)=O [PMA, Phorbol 12-myristate 13-acetate] | – | – | – | – | – | increase in cell death as compared to control [4]: ~50%
11 | CC(=O)c1c(C)c2cnc(Nc3ccc(N4CCNCC4)cn3)nc2n(C2CCCC2)c1=O [Palbociclib] | – | – | strongly reduced ROS production | – | – | –
12 | CN(C)C(=O)c1cc2cnc(Nc3ccc(N4CCNCC4)cn3)nc2n1C1CCCC1 [Ribociclib] | – | – | more modest reduction | – | – | –
13 | CC(C)(C)C(=O)Oc1ccc(S(=O)(=O)Nc2ccccc2C(=O)NCC(=O)O)cc1 [Sivelestat] | – | – | – | – | – | increase in cell death as compared to control [4]: < 6%
14 | CN1CCN(CCCN2c3ccccc3Sc3ccc(C(F)(F)F)cc32)CC1 [Stelazine, Trifluoperazine] | 2.5 µM | 4 µM | more effective | 1 µM | 4 µM | ROS inhibitor effectiveness over 100 nm to 10 uM (human neutrophils [1]): most effective ROS inhibitors; alanine aminotransferase (ALT) levels in the blood [5]: increased alanine aminotransferase (ALT) levels in the blood; ROS levels in LPS treated lungs, luminol/IVIS imaging (LPS treated mice; 4 hours following treatment): had an effect on ROS levels; reduction in ROS in the lungs as compared to the untreated control (LPS treated mice; IV, 48 hours after LPS administration): ~50%
